PMC11218721, “Receptor-Targeted Peptide Conjugates Based on Diphosphines Enable Preparation of ^99mTc and ^188Re Theranostic Agents for Prostate Cancer” (Journal of Nuclear Medicine, 2024)

Key:
[1] = system: DU145-PSMA+ prostate cancer cells (DU145 cells transfected to express PSMA receptor); test: Radiotracer uptake in DU145-PSMA+ prostate cancer cells; assay type: cell-based; conditions: for cellular localization of radioactivity in DU145-PSMA+ cells over time: 15, 30, 60 and 120 min, surface-bound vs internalized fraction; for uptake in DU145-PSMA+ cells: 100 kBq radiotracer, 1 h incubation, percentage added radioactivity, mean ± SD, n = 3–4 biologic repeats in triplicate; for uptake in DU145-PSMA+ cells / uptake in DU145-PSMA+ cells with PMPA block: 37°C; for uptake in DU145-PSMA+ cells with PMPA block: coincubated with PSMA inhibitor PMPA, 1 h
Description: (§1) Solutions containing radiotracer (100 kBq in 8–12 μL of phosphate-buffered saline, >95% radiochemical purity) were added to DU145-PSMA+ or LNCaP prostate cancer cells ([22]), and the cells were incubated at 37°C for 1 h. Nonspecific uptake was determined using non–PSMA-expressing cells (DU145, PC3) or by blocking PSMA-expressing cells (DU145-PSMA+, LNCaP) with 2-phosphonomethyl pentanedioic acid (PMPA). After incubation, the cells were washed and samples collected for radioactivity counting. Uptake and localization of ^99mTc radiotracers were measured over time (15, 30, 60, and 120 min) in DU145-PSMA+ or LNCaP cells (supplemental materials).
(§2) To assess the specificity of the new radiotracers for PSMA, [^99mTc]Tc-DP1-PSMAt and [^99mTc]Tc-DP2-PSMAt (100 kBq) were each incubated with DU145-PSMA+ prostate cancer cells (DU145 cells transfected to express PSMA receptor) ([22]). After 1 h of incubation, uptake of each radiotracer was quantified. […] In LNCaP cells, uptake of [^99mTc]Tc-DP1-PSMAt and [^99mTc]Tc-DP2-PSMAt measured 3.7 ± 1.2 %AR and 3.0 ± 0.8 %AR, respectively, whereas uptake of both radiotracers in PC3 cells measured less than 0.3 %AR.
(§3) FIGURE 2. (A) Uptake of radiotracers in PSMA-positive and PSMA-negative prostate cancer cells. (B) Time course uptake and localization of ^99mTc radiotracers in DU145-PSMA cells and LNCaP cells. Data are presented as mean ± SD; n = 3–4 biologic repeats performed in triplicate.

[2] = system: LNCaP prostate cancer cells, which natively express PSMA; test: Radiotracer uptake in LNCaP prostate cancer cells; assay type: cell-based; conditions: for cellular localization of radioactivity in LNCaP cells over time: 15, 30, 60 and 120 min, surface-bound vs internalized fraction; for uptake in LNCaP cells: 100 kBq radiotracer, 1 h incubation, percentage added radioactivity, mean ± SD, n = 3–4 biologic repeats in triplicate; for uptake in LNCaP cells / uptake in LNCaP cells with PMPA block: 37°C; for uptake in LNCaP cells with PMPA block: blocked with PMPA, 1 h
Description: as §1, §2, §3

[3] = system: parental DU145 cells that do not express PSMA; test: Radiotracer uptake in parental DU145 cells (non-PSMA-expressing); assay type: cell-based; conditions: 100 kBq, 1 h, 37°C
Description: as §1, §2, §3

PC3 cells = test: Radiotracer uptake in PC3 cells (non-PSMA-expressing); assay type: cell-based; conditions: 100 kBq, 1 h, 37°C; cells do not express PSMA
Description: as §1, §2, §3

[4] = system: DU145-PSMA+ xenograft tumors; test: Ex vivo biodistribution in SCID/beige mice bearing DU145-PSMA+ xenograft tumors; conditions: 2 h after injection; for effect of PMPA coadministration on kidney retention (in words): SCID/beige mice bearing DU145-PSMA+ tumors; for mean difference in spleen retention, radiotracer only vs with PMPA / mean difference in tumor uptake, radiotracer only vs with PMPA: SCID/beige mice; for mean difference in tumor uptake, radiotracer only vs with PMPA: DU145-PSMA+ tumors
Description: (§4) All animal experiments were ethically reviewed by an Animal Welfare and Ethical Review Board at either King’s College London or Barts Cancer Institute and were performed in accordance with the Animals (Scientific Procedures) Act 1986 U.K. Home Office regulations governing animal experimentation. Subcutaneous prostate cancer DU145-PSMA+ or DU145 xenografts were produced in SCID/beige mice (male, 7–12 wk old). Subcutaneous LNCaP prostate cancer xenografts were produced in athymic nude mice (Crl:NU(NCr)-Foxn1^nu, male, 6–7 wk old). SPECT/CT and biodistribution studies using ^99mTc and ^188Re radiotracers were performed once a tumor had reached an appropriate size (supplemental materials).
The biodistributions of [^99mTc]Tc-DP1-PSMAt and [^99mTc]Tc-DP2-PSMAt were assessed in male SCID/beige mice bearing DU145-PSMA+ xenograft tumors (Fig. 3). Each mouse was administered either [^99mTc]Tc-DP1-PSMAt or [^99mTc]Tc-DP2-PSMAt and euthanized at 2 h after injection (n = 5), followed by organ harvesting for ex vivo radioactivity counting.
(§5) FIGURE 3. (A) Biodistribution (2 h after injection) of SCID/beige mice bearing DU145-PSMA+ prostate cancer tumors, administered either ^99mTc or ^188Re radiotracers intravenously. To assess specificity of radiotracer uptake, additional groups of mice were also coadministered radiotracer and PMPA (Supplemental Tables 3 and 4). (B) Whole-body SPECT/CT maximum-intensity projections of SCID/beige mice bearing either DU145-PSMA+ tumors or DU145 tumors, administered either [^99mTc]Tc-DP1-PSMAt or [^99mTc]Tc-DP2-PSMAt, 2 h after injection. To inhibit uptake in DU145-PSMA+ tumors, animals were also coadministered PMPA.
To assess the specificity of each radiotracer, separate groups of animals, also bearing DU145-PSMA+ tumors, were coadministered either [^99mTc]Tc-DP1-PSMAt and PMPA or [^99mTc]Tc-DP2-PSMAt and PMPA to inhibit PSMA-mediated uptake of radiotracer (n = 5). […] For [^99mTc]Tc-DP1-PSMAt, coadministration decreased uptake to 0.91 ± 0.29 %ID/g in tumors (compared with administration of [^99mTc]Tc-DP1-PSMAt only: mean difference of 17.12 %ID/g, P = 4 × 10^−4). For [^99mTc]Tc-DP2-PSMAt, coadministration decreased uptake to 0.76 ± 0.45 %ID/g in tumors (compared with administration of [^99mTc]Tc-DP2-PSMAt only: mean difference of 28.62 %ID/g, P = 5 × 10^−4).

DU145-PSMA+ tumors = test: SPECT/CT imaging of mice bearing DU145-PSMA+ tumors; assay type: in vivo, SCID/beige mice; conditions: radiotracer only, 2 h and 24 h after injection
Description: as §4
as §5, with “PMPA. […]” for “PMPA.”

Compound | cellular localization of radioactivity in DU145-PSMA+ cells over time [1] | uptake in DU145-PSMA+ cells [1] [%AR] | uptake in DU145-PSMA+ cells with PMPA block [1] | cellular localization of radioactivity in LNCaP cells over time [2] | uptake in LNCaP cells [2] [%AR] | uptake in LNCaP cells with PMPA block [2] | uptake in parental DU145 cells [3] | uptake in PC3 cells (PC3 cells) | effect of PMPA coadministration on kidney retention (in words) [4] | mean difference in spleen retention, radiotracer only vs with PMPA [4] [%ID/g] | mean difference in tumor uptake, radiotracer only vs with PMPA [4] [%ID/g] | tumor delineation in SPECT/CT scans (DU145-PSMA+ tumors)
Cc1ccc(P(/C(C(=O)O)=C(/C(=O)NCCOCCOCCOCCOCCC(=O)NCCCC[C@H](NC(=O)N[C@@H](CCC(=O)O)C(=O)O)C(=O)O)P(c2ccc(C)cc2)c2ccc(C)cc2)c2ccc(C)cc2)cc1 [[^99mTc]Tc-DP2-PSMAt] [metal not drawn] | most cell-associated radioactivity was found in the internalized cell fraction | 7.8 ± 1.3 | could be blocked with PMPA | most cell-associated radioactivity was found in the internalized cell fraction | 3.0 ± 0.8 | could also be blocked with PMPA | negligible uptake | less than 0.3 %AR | much less pronounced | 7.4 | 28.62 | tumors could be clearly delineated
O=C(O)CC[C@H](NC(=O)N[C@@H](CCCCNC(=O)CCOCCOCCOCCOCCNC(=O)/C(=C(\C(=O)O)P(c1ccccc1)c1ccccc1)P(c1ccccc1)c1ccccc1)C(=O)O)C(=O)O [[^99mTc]Tc-DP1-PSMAt] [metal not drawn] | most cell-associated radioactivity was found in the internalized cell fraction | 12.4 ± 2.8 | could be blocked with PMPA | most cell-associated radioactivity was found in the internalized cell fraction | 3.7 ± 1.2 | could also be blocked with PMPA | negligible uptake | less than 0.3 %AR | significantly decreased | 11.8 | 17.12 | tumors could be clearly delineated
